Measured values as given in patent US7524862B2 (Boehringer Ingelheim International GmbH, priority 2004, dated 2009).

Molecular target: T1, human hMCH-1R (Homo sapiens, UniProt Q99705)
T1 construct: expressed in transfected cells; host or cells: CHO/Galpha16 cells (stably transfected), membranes
Experiment: MCH-1 receptor binding test
Details: membranes from CHO/Galpha16 cells stably transfected with hMCH-1R; 125I-MCH
Procedure: Membranes from CHO/Galpha16 cells stably transfected with human hMCH-1R are resuspended using a syringe (needle 0.6×25 mm) and diluted in test buffer (50 mM HEPES, 10 mM MgCl2, 2 mM EGTA, pH 7.00; 0.1% bovine serum albumin (protease-free), 0.021% bacitracin, 1 μg/mL aprotinin, 1 μg/mL leupeptin and 1 μM phosphoramidone) to a concentration of 5 to 15 μg/mL. […] After the incubation, the reaction is filtered using a cell harvester through 0.5% PEI treated fiberglass filters (GF/B, Unifilter Packard). The membrane-bound radioactivity retained on the filter is then determined after the addition of scintillator substance (Packard Microscint 20) in a measuring device (TopCount of Packard). […] The analysis of the concentration binding curve is carried out on the assumption of one receptor binding site.

T1 sequence (Q99705 whole entry): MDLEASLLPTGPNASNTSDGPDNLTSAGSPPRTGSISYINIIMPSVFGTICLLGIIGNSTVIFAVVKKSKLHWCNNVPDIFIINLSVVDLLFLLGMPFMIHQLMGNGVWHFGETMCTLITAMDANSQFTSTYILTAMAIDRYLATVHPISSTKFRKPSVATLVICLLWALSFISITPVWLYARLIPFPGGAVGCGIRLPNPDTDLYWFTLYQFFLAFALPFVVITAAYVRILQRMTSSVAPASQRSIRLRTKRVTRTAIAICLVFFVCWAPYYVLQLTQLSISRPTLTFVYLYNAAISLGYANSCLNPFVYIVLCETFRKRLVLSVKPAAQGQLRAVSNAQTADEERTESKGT

IC50 | SMILES
246 nM | Cc1cc(N2CCC(C)CC2)nc2ccc(C#Cc3ccc(-c4ccc(Cl)cc4)cn3)cc12 [Example 1.43, 6-[5-(4-chlorophenyl)pyridin-2-ylethynyl]-4-methyl-2-(4-methylpiperidin-1-yl)quinoline]
6.8 nM | Cc1cc(NC(C)C)nc2ccc(C#Cc3ccc(-c4ccc(Cl)cc4)cn3)cc12 [Example 1.44, {6-[5-(4-chlorophenyl)pyridin-2-ylethnyl]-4-methylquinolin-2-yl}isopropylamine]
